The values below come from patent publication EP1295874A2, “Retroviral protease inhibiting compounds” (Abbott Laboratories, priority 1995, dated 1997).

Where two headings read alike, the source gives them in different places.

In data set [1] the target is T1, HIV protease (Human immunodeficiency virus type 1 group M subtype B, UniProt P04585).
T1 construct: HIV protease consists of two identical subunits, each of which has 99 amino acid residues
The data set is described as follows: Fluorogenic Assay for Screening Inhibitors of HIV Protease. In kind it is biochemical. To be noted: read-out: Percent Inhibition. As for the experimental part:
The inhibitory potency of the compound of the invention can be determined by the following method.
The compound of the invention is dissolved in DMSO and a small aliquot further diluted with DMSO to 100 times the final concentration desired for testing. The reaction is carried out in a 6 X 50 mm tube in a total volume of 300 microliters. The final concentrations of the components in the reaction buffer are: 125 mM sodium acetate, 1 M sodium chloride, 5 mM dithiothreitol, 0.5 mg/ml bovine serum albumin, 1.3 µM fluorogenic substrate, 2% (v/v) dimethylsulfoxide, pH 4.5. After addition of inhibitor, the reaction mixture is placed in the fluorometer cell holder and incubated at 30°C for several minutes. The reaction is initiated by the addition of a small aliquot of cold HIV protease. The fluorescence intensity (excitation 340 nm, emmision 490 nM) is recorded as a function of time. The reaction rate is determined for the first six to eight minutes. The observed rate is directly proportional to the moles of substrate cleaved per unit time. The percent inhibition is 100 X (1 - (rate in presence of inhibitor)/(rate in absence of inhibitor)).
Fluorogenic substrate: Dabcyl-Gaba-Ser-Gln-Asn-Tyr-Pro-lle-Val-Gln-EDANS wherein DABCYL = 4-(4-dimethylamino-phenyl)azobenzoic acid, Gaba = γ-aminobutyric acid, and EDANS = 5-((2-aminoethyl)amino)-naphthalene-1-sulfonic acid.

In data set [2] the test system is HIVIIIB. As to the kind of experiment: Antiviral activity (anti-HIV activity) in MT4 cells, MTT readout. It is filed as cell-based. To be noted: Human immunodeficiency virus 1, MT4, 120 h, read-out: IC50 (µM, 0% plasma). An excerpt:
(§1) The anti-HIV activity of the compound of the invention can be determined in MT4 cells according to the following procedure. MT4 cells were infected with cell-free supernatant of HIVIIIB (previously frozen with known 50% tissue culture infectious dose (TCID50) at 0.003 multiplicity of infection (MOI) for one hour. After one hour infection, cells were washed twice to remove residual viruses, resuspended in culture media and seeded into 96-well tissue culture plates at 1x10^4 cells per well with various half-log dilutions of compounds. Uninfected cells are included as toxicity and cell controls. RPMI 1640 media (Gibco ) with 10% fetal bovine serum were used as culture media. Various concentrations of human serum (Sigma) 50%, 25% and 12.5% were added to culture media resulting in final concentration of 60%, 35% and 22.5% total serum. All assay plates were incubated in 37 deg. cent. incubator for 5 days. MTT (sigma, 5 mg/ml stock in PBS) was added to all wells at 25 ul per well, incubate for 4 hours. 20%SDS with 0.02 N HCl in water was added at 50 ul per well to lyse cellls. Plates incubated overnight for complete lyses were read on a microtitre plate reader at 570/650 nm wavelengths to determine cell optical density (O.D.). Raw data were analysed for percent inhibition by the following formula: (O.D. test well - O.D. virus control)/(O.D. cell control -O.D. virus control)x100 [formula] The 50% effective concentration (EC50) was calculated by the median effect equation (Chou, 1975,Proc. Int. Cong. Pharmacol. 6th p. 619) to determine the efficacy of compound. The 50% lethal concentration (LC50) was calculated using uninfected MT4 cells.
(§2) Under these conditions, the following data were obtained (n = 4 duplicate determinations: Table 2

A short description of data set [3]: 50% lethal concentration in uninfected MT4 cells (MTT). It is filed as cell-based. To be noted: human, read-out: LC50.
Excerpt: as §1, §2

Setting [4] is: Inhibitor Concentration 0.5 nanomolar.

For `Cc1cccc(C)c1OCC(=O)N[C@@H](Cc1ccccc1)[C@@H](O)C[C@H](Cc1ccccc1)NC(=O)[C@H](C(C)C)N1CCOC1=O` [Example 3C, (2S, 3S, 5S)-2-(2,6-Dimethylphenoxyacetyl) amino-3-hydroxy-5-[2S-(3-oxazolidin-2-onyl)-3-methyl-butanoyl] amino-1,6-diphenylhexane], the inhibition at 0.0005 µM in data set [1] (setting [4]) came out at 86.9%. Further, the half-inhibitory concentration (IC50) in data set [2] worked out at 0.025 µM. Moreover, in data set [3], the CC50 at 120 h turned out to be 49500 nM.
`Cc1cccc(C)c1OCC(=O)N[C@@H](Cc1ccccc1)[C@@H](O)C[C@H](NC(=O)[C@H](C(C)C)N1CCCNC1=O)C(C)C` [Example 27D, (2S,3S,5S)-2-(2,6-Dimethylphenoxyacetyl) amino-3-hydroxy-5-[2S-(1-tetrahydro-pyrimid-2-onyl)-3-methylbutanoyl]amino-1-phenyl-6-methylheptane]: the inhibition at 0.0005 µM in data set [1] (setting [4]) came to 92.9%. In addition, the IC50 in data set [2] worked out at 0.03 µM. For the same molecule, in data set [3], the CC50 at 120 h was 56200 nM.
As for `Cc1cccc(C)c1OCC(=O)N[C@@H](Cc1ccccc1)[C@@H](O)C[C@H](NC(=O)[C@H](C(C)C)N1CCC(=O)NC1=O)C(C)C` [Example 28, (2S,3S,5S)-2-(2,6-Dimethylphenoxyacetyl) amino-3-hydroxy-5-[2S-(1-tetrahydro-pyrimid-2,4-dionyl)-3-methylbutanoyl]amino-1-phenyl-6-methylheptane], in data set [1] (setting [4]), the inhibition at 0.0005 µM came to 86.6%. Moreover, the IC50 in data set [2] was determined as 0.011 µM. Also, the CC50 at 120 h in data set [3] is 72200 nM.
As to `Cc1ccnc(C)c1OCC(=O)N[C@@H](Cc1ccccc1)[C@@H](O)C[C@H](Cc1ccccc1)NC(=O)[C@@H](N1CCNC1=O)C(C)(C)C` [Example 14D, (2S,3S,5S)-2-(2,4-Dimethyl-pyridin-3-oxy-acetyl) amino-3-hydroxy-5-(2S-(1-imidazolidin-2-onyl)-3,3-dimethylbutanoyl) amino-1,6-diphenylhexane], in data set [1] (setting [4]), the inhibition at 0.0005 µM was 52.7%. For the same molecule, the concentration for half-maximal inhibition (IC50) in data set [2] turned out to be 0.053 µM. In data set [3], the CC50 at 120 h was > 100000 nM.
For the molecule `Cc1cc(C)c(OCC(=O)N[C@@H](Cc2ccccc2)[C@@H](O)C[C@H](Cc2ccccc2)NC(=O)[C@H](C(C)C)N2CCNC2=O)c(C)c1` [Example 11B, (2S,3S,5S)-2-(2,4,6-Trimethylphenoxyacetyl) amino-3-hydroxy-5-(2S-(1-imidazolidin-2-onyl)-3-methylbutanoyl) amino-1,6-diphenylhexane], the inhibition at 0.0005 µM in data set [1] (setting [4]) stood at 91.1%. For the same molecule, the half-maximal inhibitory concentration (IC50) in data set [2] was 0.19 µM. In addition, in data set [3], the CC50 at 120 h was determined as 18200 nM.
As for `Cc1cccc(C)c1OCC(=O)N[C@@H](Cc1ccccc1)[C@@H](O)C[C@H](Cc1ccccc1)NC(=O)[C@H](C(C)C)N1CCNC1=O` [Example 1P, (2S, 3S, 5S)-2-(2,6-dimethylphenoxyacetyl) amino-3-hydroxy-5-[2S-(1-imidazolidin-2-onyl)-3-methyl-butanoyl] amino-1,6-diphenylhexane], the inhibition at 0.0005 µM in data set [1] was determined as 92.6%. Further, the IC50 in data set [2] turned out to be 0.01 µM. The CC50 at 120 h in data set [3] was determined as 41300 nM.
Regarding `Cc1cccc(C)c1OCC(=O)N[C@@H](Cc1ccccc1)[C@@H](O)C[C@H](Cc1ccccc1)NC(=O)[C@H](C(C)C)N1CCCC1=O` [Example 17C, (2S,3S,5S)-2-(2,6-Dimethylphenoxyacetyl) amino-3-hydroxy-5-(2S-(1-pyrrolidin-2-onyl)-3-methyl-butanoyl) amino-1,6-diphenylhexane], the inhibition at 0.0005 µM in data set [1] (setting [4]) worked out at 87.2%. For the same molecule, the IC50 in data set [2] is 0.051 µM. Besides, the CC50 at 120 h in data set [3] came out at 19000 nM.
With `Cc1cccc(C)c1CCC(=O)N[C@@H](Cc1ccccc1)[C@@H](O)C[C@H](Cc1ccccc1)NC(=O)[C@H](C(C)C)N1CCCNC1=O` [Example 20D, (2S,3S,5S)-2-(3-(2,6-Dimethylphenyl)propanoyl) amino-3-hydroxy-5-(2S-(1-tetrahydropyrimidin-2-onyl)-3-methyl-butanoyl) amino-1,6-diphenylhexane], the IC50 in data set [2] was 0.283 µM. The CC50 at 120 h in data set [3] worked out at 24100 nM.
Take `Cc1cccc(C)c1OCC(=O)N[C@@H](Cc1ccccc1)[C@@H](O)C[C@H](Cc1ccccc1)NC(=O)[C@H](C(C)C)N1CCNNC1=O` [Example 26H, (2S,3S,5S)-2-(2,6-Dimethylphenoxyacetyl) amino-3-hydroxy-5[2S-(4-aza-1-tetrahydro-pyrimid-2-onyl)-3-methyl-butanoyl]amino-1,6-diphenylhexane]: in data set [1] (setting [4]), the inhibition at 0.0005 µM amounted to 94.6%. Besides, the IC50 in data set [2] turned out to be 0.015 µM. In addition, the CC50 at 120 h in data set [3] is 33000 nM.
Turning to `Cc1ncnc(C)c1OCC(=O)N[C@@H](Cc1ccccc1)[C@@H](O)C[C@H](Cc1ccccc1)NC(=O)[C@H](C(C)C)N1CCNC1=O` [Example 13B, (2S,3S,5S)-2-(4,6-Dimethylpyrimidin-5-oxy-acetyl) amino-3-hydroxy-5-(2S-(1-imidazolidin-2-onyl)-3-methyl-butanoyl) amino-1,6-diphenylhexane], the inhibition at 0.001 µM in data set [1] (Inhibitor Concentration 1.0 nanomolar) was 56.2%.
For `CC(C)[C@@H](C(=O)N[C@@H](Cc1ccccc1)C[C@H](O)[C@H](Cc1ccccc1)NC(=O)O[C@H]1CO[C@H]2OCC[C@H]21)N1CCNC1=O` [Example 5, (2S,3S,5S)-2-[(3R,3aS,6aR)-Bis-tetrahydrofuranyloxy] amino-3-hydroxy-5-[2S-(1-imidazolidin-2-onyl)-3-methylbutanoyl] amino-1,6-diphenylhexane], in data set [1] (setting [4]), the inhibition at 0.0005 µM worked out at 80.8%. Also, the concentration for half-maximal inhibition (IC50) in data set [2] was determined as 0.368 µM. For the same molecule, in data set [3], the CC50 at 120 h is > 100000 nM.
For `Cc1cccc(C)c1OCC(=O)N[C@@H](Cc1ccccc1)[C@@H](O)C[C@H](Cc1ccccc1)NC(=O)[C@H](C(C)C)N1CC=NNC1=O` [Example 30B, (2S,3S,5S)-2-(2,6-Dimethylphenoxyacetyl) amino-3-hydroxy-5[2S-(4-aza-4,5-dehydro-1-pyrimid-2-onyl)-3-methyl-butanoyl]amino-1,6-diphenylhexane], the inhibition at 0.0005 µM in data set [1] (setting [4]) stood at 91%. Also, the IC50 in data set [2] worked out at 0.003 µM. Also, the CC50 at 120 h in data set [3] amounted to 18000 nM.
In the same order, the values of `CC(C)[C@@H](C(=O)N[C@@H](Cc1ccccc1)C[C@H](O)[C@H](Cc1ccccc1)NC(=O)OCc1cncs1)N1CCNC1=O` [Example 6F, (2S,3S,5S)-2-(N-((5-Thiazolyl)methoxycarbonyl)amino)-5-((2S-(1-imidazolidin-2-onyl)-3-methyl-butanoyl)-amino)-3-hydroxy-1,6-diphenylhexane] are 61.4%, 0.193 µM and > 100000 nM.
On the same counts, the results for `CC(C)[C@@H](C(=O)N[C@@H](Cc1ccccc1)C[C@H](O)[C@H](Cc1ccccc1)NC(=O)O[C@H]1CO[C@H]2OCC[C@H]21)N1CCN(C)C1=O` [Example 4F, (2S,3S,5S)-2-[(3R, 3aS, 6aR)-Bis-tetrahydrofuranyloxy] amino-3-hydroxy-5-[2S-(3-methyl-1-imidazolidin-2-onyl)-3-methylbutanoyl] amino-1,6-diphenylhexane] are 49.7%, 0.101 µM and > 100000 nM.
As to `Cc1cccc(C)c1OCC(=O)N[C@@H](Cc1ccccc1)[C@@H](O)C[C@H](Cc1ccccc1)NC(=O)[C@H](C(C)C)n1ccc(=O)[nH]c1=O` [Example 23C, (2S,3S,5S)-2-(2,6-Dimethylphenoxyacetyl) amino-3-hydroxy-5-(2S-(1-dihydropyrimid-2,4-dionyl)-3-methyl-butanoyl) amino-1,6-diphenylhexane], the inhibition at 0.0005 µM in data set [1] (setting [4]) came to 86%.
`CC(C)[C@@H](C(=O)N[C@@H](Cc1ccccc1)C[C@H](O)[C@H](Cc1ccccc1)NC(=O)O[C@@H]1CCS(=O)(=O)[C@@H]1C(C)C)N1CCCNC1=O` [Example 22E, (2S,3S,5S)-2-(cis(±)-1,1-dioxo-2-isopropyl-3-tetrahydrothiophenoxy)amino-3-hydroxy-5-(2S-(1-tetrahydropyrimid-2-onyl)-3-methylbutanoyl)amino-1,6-diphenylhexane]: the inhibition at 0.0005 µM in data set [1] (setting [4]) amounted to 71.8%.

What is called inhibition is the percentage by which the read-out fell short of the control. What is called IC50 is the point on the concentration scale where inhibition reaches its midpoint.
